Experimental data published in ChEMBL document CHEMBL5625200 (Eur J Med Chem, 2023).
The source made the active and inactive calls. The rule behind the calls is not given here.

Tests used:
[1] = system: Rattus norvegicus; assay: Antioxidant activity against MCT-induced Wistar albino rat assessed as increase in GSH level at 150 mg/kg, sc by biochemical analysis (reference value: 12.21 +/- 0.34 U/mg); type: functional
[2] = system: Rattus norvegicus; assay: Antihypertensive activity against MCT-induced Wistar albino rat assessed as reduction in ANP level at 150 mg/kg, sc by ELISA analysis (reference value: 358.00 +/- 1.24 pg/ml); type: functional
[3] = system: Rattus norvegicus; assay: Antihypertensive activity against MCT-induced Wistar albino rat assessed as decrease in COX-2 expression by measuring fold change at 300 mg/kg, sc by quantitative RT-PCR analysis (reference value: 32.22); type: functional
[4] = system: Rattus norvegicus; assay: Antihypertensive activity against MCT-induced Wistar albino rat assessed as decrease in lung mPGES-1 expression at 300 mg/kg, sc by Western blotting analysis; type: functional, organism-based
[5] = system: Rattus norvegicus; assay: Antioxidant activity against MCT-induced Wistar albino rat assessed as increase in SOD level at 300 mg/kg, sc by biochemical analysis (reference value: 19.15 +/- 0.21 U/mg); type: functional
[6] = system: Rattus norvegicus; assay: Antihypertensive activity against MCT-induced Wistar albino rat PAH model assessed as decreased right ventricular hypertrophy at 150 mg/kg, sc administered for 21 days (reference value: 0.42 +/- 0.020 […]); type: functional; settings: time 21 day
[7] = system: Rattus norvegicus; assay: Antioxidant activity against MCT-induced Wistar albino rat assessed as reduction in TBARS level at 150 mg/kg, sc by biochemical analysis (reference value: 123.03 +/- 0.47 micromol); type: functional
[8] = system: Rattus norvegicus; assay: Antioxidant activity against MCT-induced Wistar albino rat assessed as reduction in TBARS level at 300 mg/kg, sc by biochemical analysis (reference value: 123.03 +/- 0.47 micromol); type: functional
[9] = system: Rattus norvegicus; assay: Antihypertensive activity against MCT-induced Wistar albino rat assessed as decrease in ET-alpha expression by measuring fold change at 300 mg/kg, sc by quantitative RT-PCR analysis (reference value: 32.14); type: functional
[10] = system: Rattus norvegicus; assay: Antihypertensive activity against MCT-induced Wistar albino rat assessed as reduction in HIF1alpha level at 150 mg/kg, sc by ELISA analysis (reference value: 312.00 +/- 1.36 ng/ml); type: functional
[11] = biological target: T1, Endothelin-1 receptor (Homo sapiens, UniProt P25101); assay: Antagonist activity against human ET-1 by ELISA analysis; type: functional
T1 sequence (P25101 whole entry): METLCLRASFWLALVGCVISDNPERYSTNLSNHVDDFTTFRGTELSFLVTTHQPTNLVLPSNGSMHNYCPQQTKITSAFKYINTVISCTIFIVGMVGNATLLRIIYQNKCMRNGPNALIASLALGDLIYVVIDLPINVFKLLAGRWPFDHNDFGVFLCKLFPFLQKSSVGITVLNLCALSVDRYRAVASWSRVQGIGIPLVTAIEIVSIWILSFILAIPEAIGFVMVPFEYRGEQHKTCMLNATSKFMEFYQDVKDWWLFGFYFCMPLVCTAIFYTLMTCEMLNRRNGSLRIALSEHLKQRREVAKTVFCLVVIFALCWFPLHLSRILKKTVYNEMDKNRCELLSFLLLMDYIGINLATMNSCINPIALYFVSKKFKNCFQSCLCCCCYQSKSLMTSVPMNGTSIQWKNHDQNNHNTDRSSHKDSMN

[12] = system: Rattus norvegicus; assay: Antihypertensive activity against MCT-induced Wistar albino rat PAH model assessed as decreased right ventricular systolic pressure at 300 mg/kg, sc administered for 21 days (reference value: 55.19 +/- 0.026 mmHg); type: functional; settings: time 21 day
[13] = system: Rattus norvegicus; assay: Antihypertensive activity against MCT-induced Wistar albino rat assessed as increase in eNOS expression by measuring fold change at 300 mg/kg, sc by quantitative RT-PCR analysis (reference value: 0.002); type: functional
[14] = system: Rattus norvegicus; assay: Antioxidant activity against MCT-induced Wistar albino rat assessed as increase in GSH level at 300 mg/kg, sc by biochemical analysis (reference value: 12.21 +/- 0.34 U/mg); type: functional
[15] = system: Rattus norvegicus; assay: Antihypertensive activity against MCT-induced Wistar albino rat PAH model assessed as decreased right ventricular hypertrophy at 300 mg/kg, sc administered for 21 days (reference value: 0.42 +/- 0.020 […]); type: functional; settings: time 21 day
[16] = system: Rattus norvegicus; assay: Antihypertensive activity against MCT-induced Wistar albino rat assessed as decrease in ET-beta expression by measuring fold change at 300 mg/kg, sc by quantitative RT-PCR analysis (reference value: 15.17); type: functional
[17] = system: Rattus norvegicus; assay: Antihypertensive activity against MCT-induced Wistar albino rat assessed as reduction in TNNI3 level at 150 mg/kg, sc by ELISA analysis (reference value: 3.42 +/- 0.12 pg/ml); type: functional
[18] = system: Rattus norvegicus; assay: Antihypertensive activity against MCT-induced Wistar albino rat assessed as increase in SGC expression by measuring fold change at 300 mg/kg, sc by quantitative RT-PCR analysis (reference value: 0.01); type: functional
[19] = system: Rattus norvegicus; assay: Antihypertensive activity against MCT-induced Wistar albino rat PAH model assessed as decreased right ventricular systolic pressure at 150 mg/kg, sc administered for 21 days (reference value: 55.19 +/- 0.026 mmHg); type: functional; settings: time 21 day
[20] = system: Rattus norvegicus; assay: Antihypertensive activity against MCT-induced Wistar albino rat assessed as reduction in TNNI3 level at 300 mg/kg, sc by ELISA analysis (reference value: 3.42 +/- 0.12 pg/ml); type: functional
[21] = system: Rattus norvegicus; assay: Antioxidant activity against MCT-induced Wistar albino rat assessed as increase in catalase level at 300 mg/kg, sc by biochemical analysis (reference value: 0.26 +/- 0.05 U/mg); type: functional
[22] = system: Rattus norvegicus; assay: Antihypertensive activity against MCT-induced Wistar albino rat assessed as increase in lung eNOS expression at 300 mg/kg, sc by Western blotting analysis; type: functional, organism-based
[23] = system: Rattus norvegicus; assay: Antihypertensive activity against MCT-induced Wistar albino rat assessed as reduction in HIF1alpha level at 300 mg/kg, sc by ELISA analysis (reference value: 312.00 +/- 1.36 ng/ml); type: functional
[24] = system: Rattus norvegicus; assay: Antihypertensive activity against MCT-induced Wistar albino rat assessed as reduction in ANP level at 300 mg/kg, sc by ELISA analysis (reference value: 358.00 +/- 1.24 pg/ml); type: functional
[25] = system: Rattus norvegicus; assay: Antihypertensive activity against MCT-induced Wistar albino rat PAH model assessed as reduction in peribronchial and interstitial inflammatory infiltrates and inter-alveolar vascular spaces at 150 to 300 mg/kg, sc by hematoxylin and eosin staining based microscopic analysis; type: functional, organism-based; settings: dose 150-300 mg/kg
[26] = system: Rattus norvegicus; assay: Antihypertensive activity against MCT-induced Wistar albino rat PAH model assessed as decreased mean pulmonary arterial pressure at 150 mg/kg, sc administered for 21 days (reference value: 19.18 +/- 0.360 mmHg); type: functional; settings: time 21 day
[27] = system: Rattus norvegicus; assay: Antioxidant activity against MCT-induced Wistar albino rat assessed as increase in SOD level at 150 mg/kg, sc by biochemical analysis (reference value: 19.15 +/- 0.21 U/mg); type: functional
[28] = system: Rattus norvegicus; assay: Antihypertensive activity against MCT-induced Wistar albino rat assessed as decrease in mPGES-1 expression by measuring fold change at 300 mg/kg, sc by quantitative RT-PCR analysis (reference value: 10.99); type: functional
[29] = system: Rattus norvegicus; assay: Antihypertensive activity against MCT-induced Wistar albino rat assessed as increase in lung SGC expression at 300 mg/kg, sc by Western blotting analysis; type: functional, organism-based
[30] = system: Rattus norvegicus; assay: Antihypertensive activity against MCT-induced Wistar albino rat assessed as decrease in lung COX-2 expression at 300 mg/kg, sc by Western blotting analysis; type: functional, organism-based
[31] = system: Rattus norvegicus; assay: Antioxidant activity against MCT-induced Wistar albino rat assessed as increase in catalase level at 150 mg/kg, sc by biochemical analysis (reference value: 0.26 +/- 0.05 U/mg); type: functional
[32] = system: Rattus norvegicus; assay: Antihypertensive activity against MCT-induced Wistar albino rat PAH model assessed as decreased mean pulmonary arterial pressure at 300 mg/kg, sc administered for 21 days (reference value: 19.18 +/- 0.360 mmHg); type: functional; settings: time 21 day
[33] = system: Rattus norvegicus; assay: Antihypertensive activity against MCT-induced Wistar albino rat assessed as presence of lung vasculitis at 150 to 300 mg/kg, sc by hematoxylin and eosin staining based microscopic analysis; type: functional, organism-based; settings: dose 150-300 mg/kg
[34] = system: Rattus norvegicus; assay: Antihypertensive activity against MCT-induced Wistar albino rat assessed as reduction of arterial wall thickening in peribronchial arteries at 150 to 300 mg/kg, sc by hematoxylin and eosin staining based microscopic analysis; type: functional, organism-based; settings: dose 150-300 mg/kg

| Compound | Activity [1] | Activity [2] | fold change (FC) [3] | Activity [4] | Activity [5] | Activity [6] | Activity [7] | Activity [8] | fold change (FC) [9] | Activity [10] | IC50 [11] | Activity [12] | fold change (FC) [13] | Activity [14] | Activity [15] | fold change (FC) [16] | Activity [17] | fold change (FC) [18] | Activity [19] | Activity [20] | further results |
| --- | --- | --- | --- | --- | --- | --- | --- | --- | --- | --- | --- | --- | --- | --- | --- | --- | --- | --- | --- | --- | --- |
| COc1ccccc1Oc1c(NS(=O)(=O)c2ccccc2)nc(-c2ncccn2)nc1OCC1CCCN1C (stereo unspecified) | 17.27 U/mg | 252.13 pg/mL | 2.91 | Active | 40.21 U/mg | 0.27 | 88.12 µmol | 73.12 µmol | 1.38 | 158.12 ng/mL | 0.22 nM | 23.16 mmHg | 0.37 | 22.72 U/mg | 0.24 | 1.04 | 2.32 pg/mL | 0.18 | 29.08 mmHg | 2.1 pg/mL | Activity [21]: 1.05 U/mg; Activity [22]: Active; Activity [23]: 132.21 ng/mL; Activity [24]: 238.08 pg/mL; Activity [25]: Active; Activity [26]: 13.11 mmHg; Activity [27]: 31.12 U/mg; fold change (FC) [28]: 1.07; Activity [29]: Active; Activity [30]: Active; Activity [31]: 0.81 U/mg; Activity [32]: 10.12 mmHg |
| CC/C=C/CCOc1nc(-c2ncccn2)nc(NS(C)(=O)=O)c1Oc1ccccc1OC | 14.02 U/mg | 261.12 pg/mL | 2.43 | Active | 32.14 U/mg | 0.29 | 102.23 µmol | 89 µmol | 0.62 | 163.12 ng/mL | 0.26 nM | 27.12 mmHg | 0.15 | 19.81 U/mg | 0.25 | 3.24 | 2.67 pg/mL | 0.38 | 33.18 mmHg | 2.36 pg/mL | Activity [33]: Active; Activity [21]: 0.95 U/mg; Activity [22]: Active; Activity [23]: 146 ng/mL; Activity [24]: 245 pg/mL; Activity [26]: 17.16 mmHg; Activity [27]: 25.43 U/mg; fold change (FC) [28]: 1.19; Activity [29]: Active; Activity [30]: Active; Activity [31]: 0.68 U/mg; Activity [32]: 13.93 mmHg |
| COc1ccccc1Oc1c(NS(C)(=O)=O)nc(-c2ncccn2)nc1OCCC(C)C | 21.92 U/mg | 241.2 pg/mL | 1.81 | Active | 46.01 U/mg | 0.26 | 78.12 µmol | 69.82 µmol | 0.44 | 139 ng/mL | 0.18 nM | 21.11 mmHg | 0.63 | 28.09 U/mg | 0.23 | 0.34 | 1.94 pg/mL | 0.49 | 26.82 mmHg | 1.84 pg/mL | Activity [34]: Active; Activity [21]: 1.21 U/mg; Activity [22]: Active; Activity [23]: 121 ng/mL; Activity [24]: 224 pg/mL; Activity [26]: 11.18 mmHg; Activity [27]: 38.21 U/mg; fold change (FC) [28]: 0.81; Activity [29]: Active; Activity [30]: Active; Activity [31]: 1.09 U/mg; Activity [32]: 9.02 mmHg |
